{"source": "patent US3933784A", "about": "“Des-(ser^13)-srif and intermediates” (American Home Products Corporation, priority 1975, dated 1976)", "test_system": "growth hormone", "assay": "Growth hormone activity in nembutal-treated rats, growth hormone level by radioimmunoassay", "format": "in vivo", "settings": "rats 200-250 g, nembutal 50 mg/kg i.p., 5 minutes later compound 800 μg per rat s.c. in saline; blood taken 15 minutes after injection; control rats 159 ± 16 ng/ml", "procedure": "After hydrolysis of the peptide in methanesulfonic acid for 18 hours at 120°C in an evacuated sealed tube, the following values for the amino acid residues are obtained: Ala 1.00, Gly 1.00, Cys 1.59, Lys 1.88, Asp 0.99, Phe 3.05, Trp (present, but not quantitated), Thr 1.76. The growth hormone activity of the compound of Example 3 was determined by injecting rats weighing about 200-250 g first with nembutal intraperitoneally at a dose of 50 mg/kg then after 5 minutes injecting the rats subcutaneously with a solution of the compound of Example 3 in saline at a dose of 800 μg per rat. Blood samples are taken 15 minutes after injection with the compound of Example 3 and the growth hormone level determined by radioimmunoassay.", "note": "Positions of bridges follow the written chain, without caps; N, C: chain ends. No end group written: not given here.", "data": [{"substance": "L-alanylglycyl-L-cysteinyl-L-lysyl-L-asparaginyl-L-phenylalanyl-L-phenylalanyl-L-tryptophyl-L-lysyl-L-threonyl-L-phenylalanyl-L-threonyl-L-cysteine-(3-13 cyclic) disulfide (AGCKNFFWKTFTC; disulfide 3-13; UniProt P61278 103-116, looked up, variant S13*) [Example 3, tridecapeptide analog of somatostatin in which the amino acid in the thirteen position has been omitted]", "values": [{"measurement": "growth hormone level", "result": "49 ± 7", "unit": "ng/mL"}]}]}
